The source of these data is US12642870B2, “Compositions and methods for delivery of nucleic acids” (Poseida Therapeutics, Inc., priority 2020, dated 2026).

Data set [1] relates to BALB/C mice. Put plainly: In vivo intramuscular LNP delivery of fLuciferase mRNA, bioluminescent imaging. As to conditions: intramuscular 20 μg fLuciferase mRNA, right hind limb, BLI at 4 hr; LNP compound/DOPE/Cholesterol/DMG-PEG2000 33.5/32.0/33.5/1.0, lipid:RNA 25:1. The procedure: Adult female BALB/C mice (n=2/group) were intramuscularly administered in the right hind limb of each mouse 20 μg of 5′-CleanCap-fLuciferase mRNA (TriLink Biotech) formulated with LNP composition comprising COMPOUND 2 as prepared according to Example 2 in the following percentages shown in Table 16:
The location and extent of luciferase expression in treated and untreated mice were determined at 4 hr and 24 hr by bioluminescent imaging (BLI) of anesthetized mice using an IVIS Lumina in vivo imaging system (Perkin Elmer) according to the manufacturer's instructions. Briefly, mice were anesthetized using isoflurane in oxygen, and placed supine on a heated stage. Mice were then administered D-luciferin (Perkin-Elmer #122799) IP, and BLI was performed.
In another experiment, adult female BALB/C mice (n=2/group) were intramuscularly administered in the right hind limb of each mouse 20 μg of 5′-CleanCap-fLuciferase mRNA (TriLink Biotech) formulated with LNP composition comprising one of COMPOUNDS 3-8 as prepared according to Example 3 in the following percentages shown in Table 18:
The location and extent of luciferase expression in treated and untreated mice were determined at 4 hr by bioluminescent imaging (BLI) of anesthetized mice as described above.

Data set [2] in a line: Physical characterisation of DNA-containing LNPs (DLS, NTA, zeta potential). The data set is classed as physicochemical. As to conditions: nano-pB-EF1a-GFP DNA LNPs: compound/DOPE/Cholesterol/DMG-PEG2000 38.0/50.0/10.0/2.0, lipid:DNA 45:1 (w/w). The procedure: LNP compositions of the present disclosure comprising DNA, a nanoplasmid encoding a piggyBac transposon, wherein the piggyBac transposon comprised GFP under control of the EF1a promoter (herein referred to as the nano-pB-EF1a-GFP), and one of COMPOUNDS 1-8 were prepared as described in Example 3 by combining one of COMPOUNDS 1-8, the phospholipid DOPE, the structural lipid cholesterol (Chol) and 1,2-dimyristoyl-sn-glycerol methoxypolyethylene glycol (DMG-PEG2000) in the following percentages in Table 20: […]

The nature of data set [3]: Physical characterisation of mRNA-containing LNPs (DLS, NTA, zeta potential). As to conditions: Fluc mRNA LNPs: compound/DOPE/Cholesterol/DMG-PEG2000 41.44/45.85/10/2.7, lipid:RNA 40:1 (w/w). The data set is classed as physicochemical. The procedure:
A series of ten multi-component LNP compositions of the present disclosure comprising exemplary compounds of Formula (I) was prepared by combining various percentages of an exemplary compound of Formula (I), the phospholipid DOPE, the structural lipid cholesterol (Chol) and 1,2-dimyristoyl-sn-glycerol methoxypolyethylene glycol (DMG-PEG2000; Avanti Polar Lipids, Alabaster, Alabama, USA).
(§1) Individual 25 mg/ml stock solutions were prepared by solubilizing the lipids in 200-proof HPLC-grade ethanol and stock solutions were stored at −80° C. until formulated. At the time of formulation, the lipid stock solutions were briefly allowed to equilibrate to room temp and then placed on a hot plate maintained at a temperature range of 50-55° C.
A 1 mg/mi solution of the desired mRNA to be incorporated into the LNPs was added to 150 mM sodium acetate buffer (pH 5.2) to form a stock solution and kept on ice. The lipid phase was mixed with the aqueous m RNA phase inside a microfluidic chip using a NanoAssemblr® instrument (Precision Nanosystems, Vancouver, BC, Canada) according to the manufacturer's instructions to form LNP compositions comprising encapsulated mRNAs.
(§2) The resultant mRNA LNP compositions were then transferred to a Repligen Float-A-Lyzer dialysis device—having a molecular weight cut off (MWCO) of 8-10 kDa (Spectrum Chemical Mfg. Corp, CA, USA) and processed by dialysis against phosphate buffered saline (PBS) (dialysate:dialysis buffer volume at least 1:200 v/v), pH 7.4 overnight at 4° C. (or alternatively room temperature for at least 4 hours), to remove the 25% ethanol and achieve a complete buffer exchange. In some experiments the LNPs were further concentrated by in an Amicon® Ultra-4 centrifugal filter unit, MWCO-30 kDa (Millipore Sigma, USA) spun at ˜4100×g in an ultracentrifuge. The mRNA LNPs were then stored at 4° C. until further use.
A series of multicomponent LNP compositions comprising one of COMPOUNDS 1-8 described in Example 1 and the mRNA encoding flue was prepared according to Example 2 and the physical characteristics of the resulting LNPs were analyzed.
In a separate experiment, LNP compositions of the present disclosure comprising mRNA encoding firefly luciferase (hereafter “Fluc”; TriLink) and COMPOUNDS 1-8 were prepared as described in Example 2 by combining one of COMPOUNDS 1-8, the phospholipid DOPE, the structural lipid cholesterol (Chol) and 1,2-dimyristoyl-sn-glycerol methoxypolyethylene glycol (DMG-PEG2000) in the percentages presented in Table 8: […]

A short description of data set [4]: Particle size and PDI of hand-mixed mRNA or DNA LNPs. As to conditions: for PDI DNA / Particle Size (nm) DNA: hand-mixed DNA LNPs: compound/DOPE/Cholesterol/DMG-PEG2000 38/50/10.0/2.0, lipid:DNA 45:1; for PDI RNA / Particle Size (nm) RNA: hand-mixed mRNA LNPs: compound/DOPE/Cholesterol/DMG-PEG2000 41.44/45.85/10/2.7, lipid:RNA 40:1. Type of data set: physicochemical. The method, then:
LNP compositions of the present disclosure comprising exemplary compounds of Formula (I) were prepared by combining various percentages of an exemplary compound of Formula (I), the phospholipid DOPE, the structural lipid cholesterol (Chol) and 1,2-dimyristoyl-sn-glycerol methoxypolyethylene glycol (DMG-PEG2000; Avanti Polar Lipids, Alabaster, Alabama, USA).
as §1
A 1 mg/ml solution of the desired mRNA or DNA to be incorporated into the LNPs was added to 150 mM sodium acetate buffer (pH 5.2) to form a stock solution and kept on ice. The aqueous mRNA or DNA was then added to the lipids as shown in Table 25 or 26 and hand-mixed vigorously with a single channel pipettor.
as §2, with “resultant mRNA or DNA LNP compositions” for “resultant mRNA LNP compositions”, “The mRNA and DNA LNPs were” for “The mRNA LNPs were”
LNP compositions of the present disclosure comprising mRNA or DNA encoding firefly luciferase (hereafter “Flue”; TriLink) and COMPOUNDS 9-21 were prepared as described in Example 14 by combining one of COMPOUNDS 9-21, the phospholipid DOPE, the structural lipid cholesterol (Chol) and 1,2-dimyristoyl-sn-glycerol methoxypolyethylene glycol (DMG-PEG2000) in the percentages presented in Tables 27 and 28:
The physical characteristics of the resulting LNPs were analyzed.

With `CC(C)C(CCC(C)C(CCC1CCC(C(=O)NC2CCC(CC3CCC(NC(=O)C4CCC(CCC(SCCN(C)C)C(C)CCC(SCCN(C)C)C(C)C)C(SCCN(C)C)C4)CC3)CC2)CC1SCCN(C)C)SCCN(C)C)SCCN(C)C` (stereo not shown) [Compound 5], in data set [1], the “Avg IM flux n = 2” value came to 2.12E+5. For the same molecule, in data set [2], the “Diameter (DLS; nm)” value is 82.0 nm, the “Diameter (NTA; nm)” value was found to be 85.8 nm, the PDI is listed as 0.168 and the “Total Particles/ml” value is on record as 2.31E+11 Particles/ml. The “Zeta Potential (mV)” value in data set [2] amounted to 0.21 mV. Also, in data set [3], the “Diameter (DLS; nm)” value was 91.8 nm, the “Diameter (NTA; nm)” value was 84.4 nm, the PDI was determined as 0.389 and the “Total Particles/ml” value is 7.03E+10 Particles/ml. In data set [3], the “Zeta Potential (mV)” value came out at 0.18 mV.

On to `CC(C)C(CCC(C)C(CCC1CC2C(=O)N(c3ccc(N4C(=O)C5CC(CCC(SCCN(C)C)C(C)CCC(SCCN(C)C)C(C)C)C(SCCN(C)C)CC5C4=O)cc3)C(=O)C2CC1SCCN(C)C)SCCN(C)C)SCCN(C)C` (stereo not shown) [Compound 7], for which the “Avg IM flux n = 2” value in data set [1] stood at 2.4E+5. In data set [2], the “Diameter (DLS; nm)” value amounted to 110.2 nm, the “Diameter (NTA; nm)” value is 90.8 nm, the PDI came out at 0.224 and the “Total Particles/ml” value turned out to be 5.52E+11 Particles/ml. Moreover, the “Zeta Potential (mV)” value in data set [2] is recorded as 0.96 mV. In data set [3], the “Diameter (DLS; nm)” value is recorded as 123.5 nm, the “Diameter (NTA; nm)” value is reported as 108.4 nm, the PDI came out at 0.113 and the “Total Particles/ml” value was 5.10E+10 Particles/ml. Also, in data set [3], the “Zeta Potential (mV)” value is given as −0.29 mV.

With `CC(C)C(CCC1CC2C(=O)N(c3ccc(N4C(=O)C5CC(CCC(SCCN(C)C)C(C)C)C(SCCN(C)C)CC5C4=O)cc3)C(=O)C2CC1SCCN(C)C)SCCN(C)C` (stereo not shown) [Compound 8], the “Avg IM flux n = 2” value in data set [1] amounted to 8.31E+4.

As to `CC(C)C(CCC(C)C(CCC1CCC(C(=O)OCCCCCCOC(=O)C2CCC(CCC(SCCN(C)C)C(C)CCC(SCCN(C)C)C(C)C)C(SCCN(C)C)C2)CC1SCCN(C)C)SCCN(C)C)SCCN(C)C` (stereo not shown) [Compound 10], in data set [4], the “PDI DNA” value stood at 0.403, the “Particle Size (nm) DNA” value turned out to be 291.2 nm, the “PDI RNA” value came out at 0.120 and the “Particle Size (nm) RNA” value worked out at 254.1 nm.

Consider `CC(C)C(CCC(C)C(CCC1CCC(C(=O)OCCCCCCCCCCCCOC(=O)C2CCC(CCC(SCCN(C)C)C(C)CCC(SCCN(C)C)C(C)C)C(SCCN(C)C)C2)CC1SCCN(C)C)SCCN(C)C)SCCN(C)C` (stereo not shown) [Compound 11], for which, in data set [4], the “PDI DNA” value is on record as 0.366, the “Particle Size (nm) DNA” value was 511.8 nm, the “PDI RNA” value is recorded as 0.156 and the “Particle Size (nm) RNA” value worked out at 270.4 nm.

`CC(C)C(CCC(C)C(CCC1CCC(C(=O)OCCCCCCCCCCCCCCCCCCCCOC(=O)C2CCC(CCC(SCCN(C)C)C(C)CCC(SCCN(C)C)C(C)C)C(SCCN(C)C)C2)CC1SCCN(C)C)SCCN(C)C)SCCN(C)C` (stereo not shown) [Compound 12]: in data set [4], the “PDI DNA” value came to 0.251, the “Particle Size (nm) DNA” value is recorded as 228.0 nm, the “PDI RNA” value came out at 0.216 and the “Particle Size (nm) RNA” value worked out at 162.7 nm.

For `CC(C)C(CCC1CCC(C(=O)OCCCCCCOC(=O)C2CCC(CCC(SCCN(C)C)C(C)C)C(SCCN(C)C)C2)CC1SCCN(C)C)SCCN(C)C` (stereo not shown) [Compound 14], in data set [4], the “PDI DNA” value came out at 0.272, the “Particle Size (nm) DNA” value is on record as 392.2 nm, the “PDI RNA” value is on record as 0.249 and the “Particle Size (nm) RNA” value was 222.5 nm.

On to `CC(C)C(CCC1CCC(C(=O)OCCCCCCCCCCCCOC(=O)C2CCC(CCC(SCCN(C)C)C(C)C)C(SCCN(C)C)C2)CC1SCCN(C)C)SCCN(C)C` (stereo not shown) [Compound 15], for which, in data set [4], the “PDI DNA” value worked out at 0.201, the “Particle Size (nm) DNA” value came to 375.6 nm, the “PDI RNA” value worked out at 0.208 and the “Particle Size (nm) RNA” value came out at 267.1 nm.

In the case of `CC(C)C(CCC1CCC(C(=O)OCCCCCCCCCCCCCCCCCCCCOC(=O)C2CCC(CCC(SCCN(C)C)C(C)C)C(SCCN(C)C)C2)CC1SCCN(C)C)SCCN(C)C` (stereo not shown) [Compound 16], in data set [4], the “PDI DNA” value was determined as 0.277, the “Particle Size (nm) DNA” value is reported as 149.8 nm, the “PDI RNA” value is 0.327 and the “Particle Size (nm) RNA” value worked out at 188.8 nm.

`CC(C)C(CCC(C)C(CCC1CCC(C(=O)OCCCCCCSCCCCCCCCSCCCCCCOC(=O)C2CCC(CCC(SCCN(C)C)C(C)CCC(SCCN(C)C)C(C)C)C(SCCN(C)C)C2)CC1SCCN(C)C)SCCN(C)C)SCCN(C)C` (stereo not shown) [Compound 20]: in data set [4], the “PDI DNA” value stood at 0.189, the “Particle Size (nm) DNA” value is recorded as 229.6 nm, the “PDI RNA” value was determined as 0.211 and the “Particle Size (nm) RNA” value is recorded as 221.0 nm.

In the case of `CC(C)C(CCC1CCC(C(=O)OCCCCCCSCCCCCCCCSCCCCCCOC(=O)C2CCC(CCC(SCCN(C)C)C(C)C)C(SCCN(C)C)C2)CC1SCCN(C)C)SCCN(C)C` (stereo not shown) [Compound 21], in data set [4], the “PDI DNA” value is 0.230, the “Particle Size (nm) DNA” value was 161.1 nm, the “PDI RNA” value stood at 0.273 and the “Particle Size (nm) RNA” value was 144.9 nm.
